These results are taken from ChEMBL document CHEMBL4049432, “Structure-Guided Discovery of Potent and Selective Inhibitors of ERK1/2 from a Modestly Active and Promiscuous Chemical Start Point” (J Med Chem, 2017).

The logD is the decadic logarithm of the distribution of all forms, ionised or not, between an organic phase and buffer at a given pH. The low end stands for a more hydrophilic compound, the high end for a more lipophilic compound. One may read the bioavailability as dose-corrected exposure relative to a reference, in per cent.

The first data set in a line: Octanol-aqueous phosphate buffer distribution coefficient, log D of the compound at pH 7.4. Type of data set: physicochemical.
Conditions: not given
Compound `COCCN1C(=O)c2cc(-c3ccnc(Nc4ccnn4C)n3)[nH]c2C[C@@H]1C` yielded a logD of 1.8.

Compound `COCCN1C(=O)c2cc(-c3nc(Nc4ccnn4C)ncc3C)[nH]c2C[C@H]1C` came in with a logD of 2.14.

As for `Cc1cccc(CN2CCc3[nH]c(-c4ccnc(NC5CCOCC5)n4)cc3C2=O)n1`, the logD was determined as 2.4.

On to `CN1CCc2[nH]c(-c3ccnc(NC4CCOCC4)n3)cc2C1=O`, for which the logD was 1.6.

As to `O=C1NCCn2cc(-c3ccnc(NC4CCOCC4)n3)cc21`, the logD was found to be 0.75.

In turn, `COCCN1CCc2[nH]c(-c3ccnc(Nc4ccnn4C)n3)cc2C1=O` showed a logD of 1.4.

Compound `COCCN1CCc2[nH]c(-c3ccnc(NC4CCOCC4)n3)cc2C1=O` displayed a logD of 1.6.

As to `O=C1c2cc(-c3ccnc(NC4CCOCC4)n3)[nH]c2CCN1[C@H](CO)c1ccccc1`, the logD came out at 2.6.

Compound `Cn1c(-c2ccnc(NC3CCOCC3)n2)cc2c1CCNC2=O` displayed a logD of 1.3.

For the compound `O=C1NCCc2[nH]c(-c3ccnc(NC4CCOCC4)n3)cc21`, the logD came to 1.3.

For the compound `COCCN1CCc2c(cc(-c3ccnc(NC4CCOCC4)n3)n2C)C1=O`, the logD was determined as 1.7.

Consider `COCCN1C(=O)c2cc(-c3nc(Nc4ccnn4C)ncc3C)cn2C[C@H]1C`, for which the logD was determined as 1.7.

For `COCCN1C(=O)c2cc(-c3nc(Nc4ccnn4C)ncc3C)[nH]c2C[C@@H]1C`, the logD stood at 2.11.

`COCCN1C(=O)c2cc(-c3ccnc(Nc4ccnn4C)n3)[nH]c2C[C@H]1C` came in with a logD of 1.7.

On to `COCCN1CCn2cc(-c3nc(Nc4ccnn4C)ncc3C)cc2C1=O`, for which the logD turned out to be 1.3.

In the case of `O=C1c2cc(-c3ccnc(NC4CCOCC4)n3)[nH]c2CCN1[C@H](CO)c1ccc(F)c(Cl)c1`, the logD was determined as 3.6.

`O=C1c2cc(-c3ccnc(NC4CCOCC4)n3)[nH]c2CCN1Cc1ccccc1` displayed a logD of 3.2.

Compound `COCCN1C(=O)c2cc(-c3nc(Nc4ccnn4C)ncc3C)cn2C[C@@H]1C` came in with a logD of 1.6.

For the compound `O=C1c2cc(-c3ccnc(NC4CCOCC4)n3)[nH]c2CCN1[C@H](CO)c1ccc(Cl)c(F)c1`, the logD turned out to be 3.5.

`Cc1cccc(CN2CCn3cc(-c4nc(Nc5ccnn5C)ncc4C)cc3C2=O)n1` registered a logD of 2.2.

`Cn1c(-c2ccnc(NC3CCOCC3)n2)cc2c1CCN(Cc1ccccc1)C2=O` displayed a logD of 3.3.

`CN1CCN(c2ccc(Nc3nccc(-c4cc5c([nH]4)CCNC5=O)n3)cc2)CC1` gave a logD of 1.5.

Compound `Cc1cccc(CN2C(=O)c3cc(-c4ccnc(Nc5ccnn5C)n4)cn3CC2C)n1` (single isomer, unassigned; isomer 2) gave a logD of 2.3.

The nature of the next data set: Volume of distribution at steady state in rat plasma. Type of data set: ADME. The settings on record: read-out: Vdss.
As to `Cc1cccc(CN2C(=O)c3cc(-c4nc(Nc5ccnn5C)ncc4C)cn3C[C@H]2C)n1`, the Vd came out at 1.3 L/kg.

The next data set is described as follows: Oral bioavailability in rat. Type of data set: ADME, organism-based. The settings on record: in vivo.
`Cc1cccc(CN2C(=O)c3cc(-c4nc(Nc5ccnn5C)ncc4C)cn3C[C@H]2C)n1` gave a bioavailability of 31%.

Another data set can be described thus: Volume of distribution at steady state in dog plasma. Type of data set: ADME, Canis lupus familiaris. The settings on record: read-out: Vdss.
For the compound `Cc1cccc(CN2C(=O)c3cc(-c4nc(Nc5ccnn5C)ncc4C)cn3C[C@H]2C)n1`, the Vd came out at 0.9 L/kg.

The next data set is described as follows: Oral bioavailability in dog. Type of data set: ADME, organism-based, Canis lupus familiaris. The conditions noted are these: in vivo.
As for `Cc1cccc(CN2C(=O)c3cc(-c4nc(Nc5ccnn5C)ncc4C)cn3C[C@H]2C)n1`, the bioavailability came out at 87%.
